The values below come from patent US10617690B2 (priority 2015, dated 2020).

pIC50: −log10 of the molar value. Where a name gives a salt, the structure may show the parent alone.

The target in one assay is JAK1 protein kinase (Homo sapiens, UniProt P23458). The assay is described as follows: biochemical. To be noted: 38 uM ATP, 90 min. The procedure: In Vitro Activity Test of Jak1, Jak 2 and Jak 3 Kinase
Recombinant humanized JAK1, JAK2 and JAK3 […] were all purchased from Life technology. LANCE Ultra ULight™-JAK-1(Tyr1023) peptide and LANCE Eu-W1024 Anti-phosphotyrosine (PT66) were both purchased from PerkinElmer. Envision (PerkinElmer) was used to read a plate.
Three dilution of a test compound was prepared, and 11 final concentrations were obtained: 10 uM to 0.17 nM. Each concentration had two repeat wells. The content of DMSO in a detection reaction was 1%.
2 nM JAK1 protein kinase, 50 nM LANCE Ultra ULight™-JAK-1(Tyr1023) peptide, 38 uM ATP, 50 mM HEPES (pH7.5), 10 mM MgCl2, 1 mM EGTA, 2 mM DTT, and 0.01% BRIJ-35. Detection plate was White Proxiplate 384-Plus plate (PerkinElmer), the reaction was conducted for 90 min at room temperature, and reaction system was 10 ul.
10 ul detection reagent was added into the reaction plate, wherein the final concentration of LANCE Eu-W1024 Anti-phosphotyrosine (PT66) was 2 nM, the final concentration of EDTA was 10 mM, incubation was conducted for 60 min at room temperature, and the plate was read by the Envision.
The reading was converted into a suppression ratio as follow equation: (%)=([…])/(Max−Min)*100%. IC50 data was detected by 4 parametric curve fitting (Model 205 in XLFIT5, iDBS), see Table 1.

The next assay addresses JAK2 protein kinase (Homo sapiens, UniProt O60674). The experiment in a line: biochemical. The conditions noted are these: 12 uM ATP, 60 min.
Another assay addresses T1, JAK3 (Homo sapiens, UniProt P52333).
T1 construct: purchased Life technology
T1 sequence (P52333 1-1124): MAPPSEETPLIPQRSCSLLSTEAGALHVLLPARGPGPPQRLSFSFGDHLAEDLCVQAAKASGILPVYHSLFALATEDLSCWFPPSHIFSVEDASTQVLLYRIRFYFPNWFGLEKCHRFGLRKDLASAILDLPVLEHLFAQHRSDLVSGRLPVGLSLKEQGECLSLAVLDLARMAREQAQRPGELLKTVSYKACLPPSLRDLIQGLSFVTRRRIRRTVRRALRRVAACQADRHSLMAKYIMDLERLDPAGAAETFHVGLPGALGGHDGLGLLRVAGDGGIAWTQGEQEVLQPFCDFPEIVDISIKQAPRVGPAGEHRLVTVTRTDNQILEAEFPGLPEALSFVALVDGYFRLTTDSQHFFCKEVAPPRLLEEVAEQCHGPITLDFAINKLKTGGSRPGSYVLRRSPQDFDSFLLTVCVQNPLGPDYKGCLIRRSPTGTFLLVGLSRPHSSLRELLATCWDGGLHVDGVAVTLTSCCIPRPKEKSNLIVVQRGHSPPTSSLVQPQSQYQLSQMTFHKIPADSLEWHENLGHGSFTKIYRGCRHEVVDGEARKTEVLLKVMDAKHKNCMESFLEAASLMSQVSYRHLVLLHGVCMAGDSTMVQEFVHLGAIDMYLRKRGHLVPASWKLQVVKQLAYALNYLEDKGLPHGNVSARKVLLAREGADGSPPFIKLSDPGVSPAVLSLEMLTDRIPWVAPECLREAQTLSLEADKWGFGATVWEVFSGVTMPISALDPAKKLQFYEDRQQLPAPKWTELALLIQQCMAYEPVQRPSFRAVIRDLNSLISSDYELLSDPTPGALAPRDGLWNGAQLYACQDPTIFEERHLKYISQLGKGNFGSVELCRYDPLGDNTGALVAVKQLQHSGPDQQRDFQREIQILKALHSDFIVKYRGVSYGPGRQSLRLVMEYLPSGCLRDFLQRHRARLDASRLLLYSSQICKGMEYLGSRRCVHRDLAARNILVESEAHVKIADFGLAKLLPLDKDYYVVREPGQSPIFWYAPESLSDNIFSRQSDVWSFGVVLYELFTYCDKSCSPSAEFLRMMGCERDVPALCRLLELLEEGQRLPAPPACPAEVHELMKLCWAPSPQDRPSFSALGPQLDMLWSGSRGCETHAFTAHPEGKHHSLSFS
The assay is described as follows: In vitro activity test of JAK3 kinase (LANCE Ultra TR-FRET).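 Further: recombinant human JAK3 phosphorylating ULight-JAK-1(Tyr1023) peptide at 4 µM ATP, with 1% DMSO, detected by Eu-anti-phosphotyrosine TR-FRET on Envision and converted to percent inhibition.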 In kind it is biochemical.

Chain of JAK1 protein kinase (P23458 whole entry): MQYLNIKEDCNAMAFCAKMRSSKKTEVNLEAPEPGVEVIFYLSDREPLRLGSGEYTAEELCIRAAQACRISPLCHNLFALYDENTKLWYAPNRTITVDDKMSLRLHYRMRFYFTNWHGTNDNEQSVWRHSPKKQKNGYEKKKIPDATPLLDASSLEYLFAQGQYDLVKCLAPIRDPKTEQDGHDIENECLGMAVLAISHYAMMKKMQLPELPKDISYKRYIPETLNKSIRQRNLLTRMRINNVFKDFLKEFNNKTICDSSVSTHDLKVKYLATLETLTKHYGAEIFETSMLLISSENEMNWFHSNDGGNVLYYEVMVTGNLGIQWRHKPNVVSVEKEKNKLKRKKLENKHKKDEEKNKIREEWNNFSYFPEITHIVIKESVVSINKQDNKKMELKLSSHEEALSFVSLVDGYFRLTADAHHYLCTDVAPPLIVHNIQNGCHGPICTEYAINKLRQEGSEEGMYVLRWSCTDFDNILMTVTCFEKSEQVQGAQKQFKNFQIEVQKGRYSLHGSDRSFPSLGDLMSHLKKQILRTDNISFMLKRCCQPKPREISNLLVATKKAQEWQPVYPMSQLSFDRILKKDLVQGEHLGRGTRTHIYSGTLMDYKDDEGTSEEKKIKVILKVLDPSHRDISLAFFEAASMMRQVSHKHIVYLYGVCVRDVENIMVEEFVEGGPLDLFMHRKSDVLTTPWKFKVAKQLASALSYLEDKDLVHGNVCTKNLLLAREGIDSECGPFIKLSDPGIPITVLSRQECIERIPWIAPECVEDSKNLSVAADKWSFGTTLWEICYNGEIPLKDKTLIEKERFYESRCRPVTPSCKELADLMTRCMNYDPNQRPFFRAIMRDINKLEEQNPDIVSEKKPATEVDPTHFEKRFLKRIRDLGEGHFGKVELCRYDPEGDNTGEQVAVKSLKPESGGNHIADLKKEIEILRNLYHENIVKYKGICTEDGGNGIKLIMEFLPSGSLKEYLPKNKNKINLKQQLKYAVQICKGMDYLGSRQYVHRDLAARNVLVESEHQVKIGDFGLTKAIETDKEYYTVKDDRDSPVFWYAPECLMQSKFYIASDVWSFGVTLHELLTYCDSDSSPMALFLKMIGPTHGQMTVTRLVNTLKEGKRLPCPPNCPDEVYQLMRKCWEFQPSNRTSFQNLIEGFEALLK
Chain of JAK2 protein kinase (O60674 whole entry): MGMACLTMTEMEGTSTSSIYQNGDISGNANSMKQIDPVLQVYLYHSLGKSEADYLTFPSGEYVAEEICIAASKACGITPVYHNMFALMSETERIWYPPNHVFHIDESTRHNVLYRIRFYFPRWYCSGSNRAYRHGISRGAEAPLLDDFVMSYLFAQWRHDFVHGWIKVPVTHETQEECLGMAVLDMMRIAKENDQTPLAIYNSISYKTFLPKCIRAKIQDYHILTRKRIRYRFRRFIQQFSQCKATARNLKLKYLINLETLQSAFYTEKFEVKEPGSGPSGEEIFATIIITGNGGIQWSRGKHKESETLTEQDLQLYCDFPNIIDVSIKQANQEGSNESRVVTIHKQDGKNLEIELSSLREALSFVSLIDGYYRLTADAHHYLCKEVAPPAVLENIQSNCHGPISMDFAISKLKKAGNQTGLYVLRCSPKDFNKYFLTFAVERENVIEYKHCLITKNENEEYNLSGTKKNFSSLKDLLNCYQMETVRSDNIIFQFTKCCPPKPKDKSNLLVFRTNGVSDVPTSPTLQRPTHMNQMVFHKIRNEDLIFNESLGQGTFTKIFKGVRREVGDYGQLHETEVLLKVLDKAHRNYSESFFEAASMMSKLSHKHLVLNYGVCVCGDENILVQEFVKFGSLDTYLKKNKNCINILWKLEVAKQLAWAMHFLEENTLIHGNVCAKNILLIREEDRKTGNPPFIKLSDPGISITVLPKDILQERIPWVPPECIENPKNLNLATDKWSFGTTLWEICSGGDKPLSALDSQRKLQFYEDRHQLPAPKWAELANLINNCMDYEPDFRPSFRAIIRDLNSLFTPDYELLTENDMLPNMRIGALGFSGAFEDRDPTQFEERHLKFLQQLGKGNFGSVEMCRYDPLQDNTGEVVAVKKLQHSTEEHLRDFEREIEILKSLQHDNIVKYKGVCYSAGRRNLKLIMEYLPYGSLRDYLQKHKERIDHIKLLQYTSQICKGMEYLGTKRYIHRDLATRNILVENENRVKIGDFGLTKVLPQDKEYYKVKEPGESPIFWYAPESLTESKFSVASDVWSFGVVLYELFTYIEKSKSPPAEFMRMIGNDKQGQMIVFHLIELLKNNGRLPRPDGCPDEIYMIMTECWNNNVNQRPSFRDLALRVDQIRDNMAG
Text for JAK2 protein kinase: (§1) Recombinant humanized JAK1, JAK2 and JAK3 protease were all purchased from Life technology. LANCE Ultra ULight™-JAK-1(Tyr1023) peptide and LANCE Eu-W1024 Anti-phosphotyrosine (PT66) were both purchased from PerkinElmer. Envision (PerkinElmer) was used to read a plate.
(§2) The reading was converted into a suppression ratio as follow equation: (%)=(Min−Ratio)/(Max−Min)*100%.
Experimental for JAK3: as §1
0.05 nM protein kinase, 50 nM LANCE Ultra ULight™-JAK-1(Tyr1023) peptide, 4 uM ATP, 50 mM HEPES (pH7.5), 10 mM MgCl2, 1 mM EGTA, 2 mM DTT, and 0.01% BRIJ-35.
as §2

In general, pIC50 refers to −log10 of the IC50, conventionally taken in molar units. For the molecule `CC(C)(C)OC(=O)N1CC2CN(Nc3ncnc4[nH]ccc34)CC2C1` (stereo not shown) [WX48, 5-[[7H-pyrrole[2,3-d]pyrimidine-4-]amino]-hexahydropyrrolo[3,4-c]pyrrole-2(1H)-tert-butyl formate], the negative-log IC50 (pIC50) on JAK1 protein kinase, against JAK2 protein kinase and against JAK3 was less than 6.00 each time.

Take `CN(c1ncnc2[nH]ccc12)N1CCC(C(=O)NCC(F)(F)F)CC1` [WX23]: the pIC50 was 7.00 to 8.00 at JAK1 protein kinase, 6.00 to 7.00 against JAK2 protein kinase and 7.00 to 8.00 at JAK3.

As for `CN(c1ccnc2[nH]ccc12)N1CCCC(C(=O)NCC(F)(F)F)C1` (stereo not shown) [WX15, N-(2,2,2-trifluoroethyl)-1-(methyl(1H-pyrrole[2,3-d]pyridin-4-yl)amino)piperidyl-3-formamide], the pIC50 was 7.00 to 8.00 on JAK1 protein kinase, 6.00 to 7.00 on JAK2 protein kinase and 6.00 to 7.00 against JAK3.

Take `CN(c1ncnc2[nH]ccc12)N1CCCC(C(=O)NCC(F)(F)C(F)(F)F)C1` (stereo not shown) [WX46, 1-[methyl(7H-pyrrole[2,3-d]pyrimidine-4-)amino]-N-(2,2,3,3,3-pentafluoropropyl)piperidyl-3-formamide]: the figures for the negative logarithm of the IC50 (pIC50) against JAK1 protein kinase, against JAK2 protein kinase and against JAK3 were not below 8.00, 7.00 to 8.00 and 7.00 to 8.00, respectively.

With `CN(c1ncnc2[nH]ccc12)N1CCC(NC(=O)CC#N)CC1` [WX25, 2-cyano-N-(1-(methyl(7H-pyrrolo[2,3-d]pyrimidin-4-yl)amino)piperidin-4-yl)acetamide], the results for the pIC50 against JAK1 protein kinase, against JAK2 protein kinase and against JAK3 were 7.00 to 8.00, 6.00 to 7.00 and 6.00 to 7.00, respectively.

In the case of `CN(c1ncnc2[nH]ccc12)N1CCC(C(=O)NCC#N)C1` (stereo not shown) [WX30, N-(cyanomethyl)-1-[methyl(7H-pyrrolo[2,3-d]pyrimidin-4-yl)amino]pyrrolidyl-3-formamide], the results for the negative-log IC50 (pIC50) against JAK1 protein kinase, at JAK2 protein kinase and against JAK3 were more than 8.00, 7.00 to 8.00 and 7.00 to 8.00, respectively.

`CN(c1ncnc2[nH]ccc12)N1CCCC(CC(=O)NCC(F)(F)F)C1` (stereo not shown) [WX17]: the negative logarithm of the IC50 (pIC50) against JAK1 protein kinase was 6.00 to 7.00; against JAK2 protein kinase it was less than 6.00; on JAK3, 6.00 to 7.00.

For the molecule `CN(c1ncnc2[nH]ccc12)N1CCCC(C(N)=O)C1` (stereo not shown) [WX11], the negative logarithm of the IC50 (pIC50) against JAK1 protein kinase, against JAK2 protein kinase and against JAK3 was 6.00 to 7.00 each time.

On to `O=C(NCC(F)(F)F)C1CCCN(N(c2ncnc3[nH]ccc23)C2CC2)C1` (stereo not shown) [WX58, 1-[cyclopropyl(7H-pyrrolo[2,3-d]pyrimidin-4-yl)amino]-N-(2,2,2-trifluoroethyl)piperidyl-3-formamide], for which the results for the pIC50 at JAK1 protein kinase, at JAK2 protein kinase and on JAK3 were 7.00 to 8.00, 6.00 to 7.00 and 6.00 to 7.00, respectively.

For the molecule `CN(c1ncnc2[nH]ccc12)N1CCCC(C)(C(=O)NCC#N)C1` (stereo not shown) [WX37, N-(cyanomethyl)-3-methyl-1-[methyl(7H-pyrrolo[2,3-d]pyrimidie-yl)amino]piperidyl-3-formamide], the negative logarithm of the IC50 (pIC50) at JAK1 protein kinase, against JAK2 protein kinase and against JAK3 was less than 6.00 each time.

In the case of `CN(c1ncnc2[nH]ccc12)N1CCCC(NC(=O)CC(F)(F)F)C1` (stereo not shown) [WX13, 3,3,3-trifluoroethyl-N-(1-(methyl(7H-pyrrolo[2,3-d]pyrimidin-4-yl)amino)piperidyl-3-)propylcarboxamide], the figures for the pIC50 on JAK1 protein kinase, on JAK2 protein kinase and on JAK3 were 6.00 to 7.00, less than 6.00 and 6.00 to 7.00, respectively.

As for `CN(c1ncnc2[nH]ccc12)N1CCC(NC(=O)CC(F)(F)F)CC1` [WX24], the negative-log IC50 (pIC50) against JAK1 protein kinase was 7.00 to 8.00; against JAK2 protein kinase it was 6.00 to 7.00; against JAK3 it was 6.00 to 7.00.

Regarding `O=C(NCC(F)(F)F)C1CCC2(CC1)CCN(Nc1ncnc3[nH]ccc13)CC2` [WX59], the pIC50 is 6.00 to 7.00 on JAK1 protein kinase, less than 6.00 at JAK2 protein kinase and less than 6.00 at JAK3.

Regarding `CN(c1ncnc2[nH]ccc12)N1CCC[C@H](C(=O)NCC#N)C1` (single isomer, unassigned) [WX09, (S or R)—N-(cyanomethyl-1-[methyl(7H-pyrrolo[2,3-d]pyrimidin-4-yl)amino]piperidyl)-3-formamide], the pIC50 was 6.00 to 7.00 on JAK1 protein kinase, less than 6.00 against JAK2 protein kinase and less than 6.00 against JAK3.

Consider `CN(c1ncnc2[nH]ccc12)N1CCCC(CC#N)C1` (stereo not shown) [WX44, 2-[1-[methyl[7H-pyrrole[2,3-d]pyrimidine-4-]amino]-3-piperidyl]acetonitrile], for which the values for the pIC50 at JAK1 protein kinase, on JAK2 protein kinase and against JAK3 were 7.00 to 8.00, 6.00 to 7.00 and 6.00 to 7.00, respectively.

Take `CN(c1ncnc2[nH]ccc12)N1CCCC(C(=O)N2CC(O)C2)C1` (stereo not shown) [WX54]: the pIC50 against JAK1 protein kinase, against JAK2 protein kinase and at JAK3 was 6.00 to 7.00 in each case.

Turning to `CN(c1ncnc2[nH]ccc12)N1CCC(C(=O)NCC(F)(F)F)C1` (single isomer, unassigned) [WX32, (R or S)-1-[methyl(7H-pyrrolo[2,3-d]pyrimidin-4-yl)amino]-N-(2,2,2-trifluoroethyl) pyrrolidyl-3-formamide], the negative-log IC50 (pIC50) was more than 8.00 against JAK1 protein kinase, more than 8.00 against JAK2 protein kinase and 7.00 to 8.00 against JAK3.

For the molecule `COCNC(=O)C1CCCN(N(C)c2ncnc3[nH]ccc23)C1` (stereo not shown) [WX42], the pIC50 was 7.00 to 8.00 on JAK1 protein kinase, 6.00 to 7.00 against JAK2 protein kinase and 7.00 to 8.00 at JAK3.

On to `O=C(NCC(F)(F)F)C1CCCN(Nc2ncnc3[nH]ccc23)C1` (stereo not shown) [WX01, 1-((7H-pyrrolo[2,3-d]pyrimidin-4-yl)amino)-N-(2,2,2-trifluoroethyl)piperidyl-3-formamide], for which the figures for the pIC50 against JAK1 protein kinase, against JAK2 protein kinase and against JAK3 were more than 8.00, 7.00 to 8.00 and 7.00 to 8.00, respectively.

On to `CSCNC(=O)C1CCCN(N(C)c2ncnc3[nH]ccc23)C1` (stereo not shown) [WX43], for which the results for the pIC50 against JAK1 protein kinase, against JAK2 protein kinase and against JAK3 were more than 8.00, 7.00 to 8.00 and 7.00 to 8.00, respectively.

Regarding `CN(c1ncnc2[nH]ccc12)N1CCOC(C(=O)NCC(F)(F)F)C1` (stereo not shown) [WX41, 4-(methyl(7H-pyrrolo[2,3-d]pyrimidin-4-yl)amino)-N-(2,2,2-trifluoroethyl)morpholine-2-formamide], the values for the negative-log IC50 (pIC50) against JAK1 protein kinase, against JAK2 protein kinase and against JAK3 were 7.00 to 8.00, 6.00 to 7.00 and 6.00 to 7.00, respectively.

For `CN(c1ncnc2[nH]ccc12)N1CCCN(C(=O)CC#N)CC1` [WX34, 3-(4-(methyl(7H-pyrrolo[2,3-d]pyrimidin-4-yl)amino)-1,4-diazepan-1-yl)-3-carbonyl-propionitrile], the pIC50 on JAK1 protein kinase, on JAK2 protein kinase and on JAK3 was 6.00 to 7.00 in each case.

Regarding `CN(c1ncnc2[nH]ccc12)N1CCCC(C(=O)NCCC#N)C1` (stereo not shown) [WX16, N-(cyanoethyl)-1-(methyl(1H-pyrrole[2,3-d]pyridyl-4-)amino)piperidyl-3-formamide], the pIC50 against JAK1 protein kinase was 7.00 to 8.00; at JAK3 it was 6.00 to 7.00.

For the molecule `CN(c1ncnc2[nH]ccc12)N1CCC(C(=O)NCC(F)(F)F)C1` (stereo not shown) [WX31, 1-[methyl(7H-pyrrolo[2,3-d]pyrimidin-4-yl)amino]-N-(2,2,2-trifluoroethyl)pyrrolidyl-3-formamide], the pIC50 was more than 8.00 against JAK1 protein kinase, 7.00 to 8.00 against JAK2 protein kinase and 7.00 to 8.00 at JAK3.

Turning to `CN(c1ncnc2[nH]ccc12)N1CCC(C(=O)NCC(F)(F)F)C1` (single isomer, unassigned) [WX33, (S or R)-1-[methyl(7H-pyrrolo[2,3-d]pyrimidin-4-yl)amino]-N-(2,2,2-trifluoroethyl)pyrrolidyl-3-formamide], the pIC50 against JAK1 protein kinase is 7.00 to 8.00; at JAK2 protein kinase, 6.00 to 7.00.
